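Method: 48-hour compound exposure of cells in 96-well plates, five concentrations, linear interpolation of endpoints. TGI marks complete inhibition of growth.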
Tests used:
Experiment in all cases: NCI tumour cell line growth inhibition, 48 h
DU-145 prostate = test system: DU-145 prostate
NCI/ADR-RES ovarian = test system: NCI/ADR-RES ovarian
786-0 renal = test system: 786-0 renal
SK-OV-3 ovarian = test system: SK-OV-3 ovarian
HCT-15 colon = test system: HCT-15 colon
SK-MEL-28 melanoma = test system: SK-MEL-28 melanoma
EKVX NSCLC = test system: EKVX NSCLC
SF-268 CNS = test system: SF-268 CNS
HOP-62 NSCLC = test system: HOP-62 NSCLC
NCI-H522 lung = test system: NCI-H522 lung
HCC-2998 colon = test system: HCC-2998 colon
SF-539 CNS = test system: SF-539 CNS
MCF7 breast = test system: MCF7 breast
OVCAR-8 ovarian = test system: OVCAR-8 ovarian
MALME-3M melanoma = test system: MALME-3M melanoma
OVCAR-4 ovarian = test system: OVCAR-4 ovarian
IGROV1 ovarian = test system: IGROV1 ovarian
K-562 leukemia = test system: K-562 leukemia
HL-60(TB) leukemia = test system: HL-60(TB) leukemia
LOX IMVI melanoma = test system: LOX IMVI melanoma
MDA-N = test system: MDA-N
NCI-H460 lung = test system: NCI-H460 lung
OVCAR-3 ovarian = test system: OVCAR-3 ovarian
ACHN renal = test system: ACHN renal
SN12C renal = test system: SN12C renal
SF-295 CNS = test system: SF-295 CNS
HCT-116 colon = test system: HCT-116 colon
BT-549 breast = test system: BT-549 breast
CAKI-1 renal = test system: CAKI-1 renal
SW-620 colon = test system: SW-620 colon
CCRF-CEM leukemia = test system: CCRF-CEM leukemia
RPMI-8226 leukemia = test system: RPMI-8226 leukemia
T-47D breast = test system: T-47D breast
NCI-H226 lung = test system: NCI-H226 lung
HS 578T breast = test system: HS 578T breast
KM12 colon = test system: KM12 colon
SNB-75 CNS = test system: SNB-75 CNS
U251 CNS = test system: U251 CNS
OVCAR-5 ovarian = test system: OVCAR-5 ovarian
UO-31 renal = test system: UO-31 renal
MDA-MB-231 breast = test system: MDA-MB-231 breast
COLO 205 colon = test system: COLO 205 colon
HOP-92 NSCLC = test system: HOP-92 NSCLC
MOLT-4 leukemia = test system: MOLT-4 leukemia
SNB-19 CNS = test system: SNB-19 CNS
SK-MEL-5 melanoma = test system: SK-MEL-5 melanoma
NCI-H23 lung = test system: NCI-H23 lung
A549 NSCLC = test system: A549 NSCLC
RXF 393 renal = test system: RXF 393 renal
UACC-62 melanoma = test system: UACC-62 melanoma
HT29 colon = test system: HT29 colon
SR leukemia = test system: SR leukemia
SK-MEL-2 melanoma = test system: SK-MEL-2 melanoma
MDA-MB-435 = test system: MDA-MB-435
TK-10 renal = test system: TK-10 renal
PC-3 prostate = test system: PC-3 prostate
M14 melanoma = test system: M14 melanoma
A498 renal = test system: A498 renal
UACC-257 melanoma = test system: UACC-257 melanoma

Measured: TGI

Nc1nc(Cl)cc(NCC2(CO)CCC2)n1
not listed: M14 melanoma | A498 renal | UACC-257 melanoma
> 100 µM: all other assays above

Cn1cnc([N+](=O)[O-])c1SCC(=O)O
not listed: SF-539 CNS | MOLT-4 leukemia
> 100 µM: all other assays above

Reference: PubChem BioAssay (NCI)
